Results on eleven compounds are retold here after patent publication US5637583A, “Aminocyclohexylesters and uses thereof” (University of British Columbia, priority 1994, dated 1997).

Experiment [1] deals with T1, cardiac sodium channel (Rattus norvegicus, UniProt P15389). In words: Whole cell voltage clamp tests, single isolated adult rat cardiac cells. The class given is cell-based. Here is the method:
In order to directly measure cardiac sodium channel blockade, standard whole cell voltage clamp tests were carried out using single isolated adult rat cardiac cells. Results in the form of EC50 values, which are micromolar concentrations required to produce a 50% reduction in sodium current, are presented in Table 6.

Experiment [2] deals with T1, cardiac sodium channel. In words: ECG parameters in anesthetized rats (RSh, PR, QRS; cardiac sodium channel blockade). The format is in vivo. The note with it: i.v. bolus; for ED25 PR (dose required to produce a 25% increase): P-R interval; for ED25 QRS (dose required to produce a 25% increase): QRS interval. Here is the method: Rats weighing 200-250 gms were used in this example. Animals were anesthetized with 60 mg/kg pentobarbitone i.p. The carotid artery and jugular vein were cannulated for measurement of blood pressure and drug injection, respectively. ECG was recorded by insertion of electrodes placed along the anatomical axis of the heart. All compounds were given as bolus injections.
Various ECG parameters were measured. The most sensitive of these for measuring sodium channel blockade is RSh (J. Pharmacology Methods 27:51-58 (1992)). Table 4 describes the results of the tests as ED25 (micromoles/kg) which are the doses required to produce a 25% increase in the parameter measured (ne=not estimated). The increases in P-R interval, QRS interval and RSh indicate cardiac sodium channel blockade while the increase in Q-T interval indicates ancillary cardiac potassium channel blockade which is the property of a type 1 a antiarrhythmic.

Experiment [3] deals with conscious rats subject to coronary artery occlusion. Put plainly: Antiarrhythmic efficacy: incidence of cardiac arrhythmias in conscious rats subject to coronary artery occlusion. The class given is in vivo, rat. As to conditions: score 0-9 per Table 2, 30 min after occlusion.
Description: Antiarrhythmic efficacy was assessed by investigating the effect of a compound on the incidence of cardiac arrhythmias in conscious rats subject to coronary artery occlusion. Rats weighing 200-300 gms were subjected to preparative surgery and assigned to groups in a random block design. In each case, the animal was anesthetized with halothane during surgical preparation. The left femoral artery was cannulated for measurement of mean arterial blood pressure and withdrawal of blood samples. The left femoral vein was also cannulated for injection of drugs. The thoracic cavity was opened and a polyethylene occluder loosely placed around the left anterior descending coronary artery. The thoracic cavity was then closed. ECG was recorded by insertion of electrodes placed along the anatomical axis of the heart. All cannulae and electrode leads were exteriorized in the mid scapular region. In random and double-blind manner, about 0.5 to 2 hours post-surgery, an infusion of vehicle, or the compound to be tested was given. After 15 minutes infusion, the occluder was pulled so as to produce coronary artery occlusion. ECG, arrhythmias, blood pressure, heart rate and mortality were monitored for 30 minutes after occlusion. Arrhythmias were recorded as ventricular tachycardia (VT) and ventricular fibrillation (VF) and scored according to Curtis, M. J. and Walker, M. J. A., Cardiovasc.
VPB=ventricular premature beats
VT=ventricular tachycardia
VF=ventricular fibrillation
Occlusion is associated with increases in R-wave height and "S-T" segment elevation; and an occluded zone (measured after death by cardiogreen dye perfusion) in the range of 25%-50% of total left-ventricular weight.
The target in experiment [4] is T1, cardiac sodium channel. In words: Electrical stimulation of left ventricle in rats (iT, VFT; cardiac sodium channel blockade). The class given is in vivo. As to conditions: infusion rate for 25% increase from control; anesthetized rats. The protocol: Rats were prepared according to the preceding procedure. Two silver stimulating electrodes were inserted through the chest wall and implanted in the left ventricle. Square wave stimulation was used to determine threshold current for capture, ventricular fibrillation threshold current, and effective refractory period (Howard, P. G. and Walker, M. J. A., Proc. West. Pharmacol. Soc. 33:123-127 (1990)). Table 5 contains ED25 values for these indices of cardiac sodium channel blockade, where the ED25 is the infusion rate in micromoles/kg/minute of compound required to elicit a 25% increase from control. The increases in refractoriness indicate ancillary blockade of potassium channels. The threshold current for capture is represented by "iT". The fibrillation threshold current is represented by "VFT". The effective refracting period is represented by "ERP".

A further experiment deals with potassium channels. In words: Electrical stimulation of left ventricle in rats (ERP; ancillary blockade of potassium channels). The class given is in vivo, rat. The note with it: infusion rate for 25% increase from control; anesthetized rats.
Experiment [5] has as its system cardiac potassium channel. Put plainly: ECG parameters in anesthetized rats (QT; ancillary cardiac potassium channel blockade). The format is in vivo, rat. As to conditions: i.v. bolus, Q-T interval.
Description: Various ECG parameters were measured. […] The increases in P-R interval, QRS interval and RSh indicate cardiac sodium channel blockade while the increase in Q-T interval indicates ancillary cardiac potassium channel blockade which is the property of a type 1 a antiarrhythmic.
Experiment [6] has as its system hypogastric nerve vas deferens. In words: Nerve conduction blockade in vitro, hypogastric nerve vas deferens. As to conditions: read-out: concentration at which the twitch response from electrical stimulation is reduced to 50% of control value. The protocol:
In order to establish the potency of the compounds to block nerve conduction, two in vitro assays were used. The first was the phrenic nerve diaphragm of the rat. The second was the hypogastric nerve vas deferens. Nerve blockade in these preparations is indicative of local anesthetic activity. Compounds were administered to the bath solution in increasing concentrations while the preparations were being stimulated with regular electrical impulses.

For the next experiment, the system named is phrenic nerve diaphragm. In words: Nerve conduction blockade in vitro, phrenic nerve diaphragm. The note with it: Rattus norvegicus, read-out: concentration at which the twitch response from electrical stimulation is reduced to 50% of control value.
The mark [7] stands for this setting: whole cell voltage clamp, isolated adult rat cardiac cells, read-out: EC50 (concentration required to produce a 50% reduction in sodium current).
Where [8] appears, read: dose 4 micromoles/kg/min infusion.
[9] abbreviates: dose 8 micromoles/kg/min infusion.

Counter-ions that a name gives are not always drawn. Like-named read-outs stand apart in the source and are kept apart here. Some results are limits rather than exact numbers.

T1 sequence (P15389 whole entry): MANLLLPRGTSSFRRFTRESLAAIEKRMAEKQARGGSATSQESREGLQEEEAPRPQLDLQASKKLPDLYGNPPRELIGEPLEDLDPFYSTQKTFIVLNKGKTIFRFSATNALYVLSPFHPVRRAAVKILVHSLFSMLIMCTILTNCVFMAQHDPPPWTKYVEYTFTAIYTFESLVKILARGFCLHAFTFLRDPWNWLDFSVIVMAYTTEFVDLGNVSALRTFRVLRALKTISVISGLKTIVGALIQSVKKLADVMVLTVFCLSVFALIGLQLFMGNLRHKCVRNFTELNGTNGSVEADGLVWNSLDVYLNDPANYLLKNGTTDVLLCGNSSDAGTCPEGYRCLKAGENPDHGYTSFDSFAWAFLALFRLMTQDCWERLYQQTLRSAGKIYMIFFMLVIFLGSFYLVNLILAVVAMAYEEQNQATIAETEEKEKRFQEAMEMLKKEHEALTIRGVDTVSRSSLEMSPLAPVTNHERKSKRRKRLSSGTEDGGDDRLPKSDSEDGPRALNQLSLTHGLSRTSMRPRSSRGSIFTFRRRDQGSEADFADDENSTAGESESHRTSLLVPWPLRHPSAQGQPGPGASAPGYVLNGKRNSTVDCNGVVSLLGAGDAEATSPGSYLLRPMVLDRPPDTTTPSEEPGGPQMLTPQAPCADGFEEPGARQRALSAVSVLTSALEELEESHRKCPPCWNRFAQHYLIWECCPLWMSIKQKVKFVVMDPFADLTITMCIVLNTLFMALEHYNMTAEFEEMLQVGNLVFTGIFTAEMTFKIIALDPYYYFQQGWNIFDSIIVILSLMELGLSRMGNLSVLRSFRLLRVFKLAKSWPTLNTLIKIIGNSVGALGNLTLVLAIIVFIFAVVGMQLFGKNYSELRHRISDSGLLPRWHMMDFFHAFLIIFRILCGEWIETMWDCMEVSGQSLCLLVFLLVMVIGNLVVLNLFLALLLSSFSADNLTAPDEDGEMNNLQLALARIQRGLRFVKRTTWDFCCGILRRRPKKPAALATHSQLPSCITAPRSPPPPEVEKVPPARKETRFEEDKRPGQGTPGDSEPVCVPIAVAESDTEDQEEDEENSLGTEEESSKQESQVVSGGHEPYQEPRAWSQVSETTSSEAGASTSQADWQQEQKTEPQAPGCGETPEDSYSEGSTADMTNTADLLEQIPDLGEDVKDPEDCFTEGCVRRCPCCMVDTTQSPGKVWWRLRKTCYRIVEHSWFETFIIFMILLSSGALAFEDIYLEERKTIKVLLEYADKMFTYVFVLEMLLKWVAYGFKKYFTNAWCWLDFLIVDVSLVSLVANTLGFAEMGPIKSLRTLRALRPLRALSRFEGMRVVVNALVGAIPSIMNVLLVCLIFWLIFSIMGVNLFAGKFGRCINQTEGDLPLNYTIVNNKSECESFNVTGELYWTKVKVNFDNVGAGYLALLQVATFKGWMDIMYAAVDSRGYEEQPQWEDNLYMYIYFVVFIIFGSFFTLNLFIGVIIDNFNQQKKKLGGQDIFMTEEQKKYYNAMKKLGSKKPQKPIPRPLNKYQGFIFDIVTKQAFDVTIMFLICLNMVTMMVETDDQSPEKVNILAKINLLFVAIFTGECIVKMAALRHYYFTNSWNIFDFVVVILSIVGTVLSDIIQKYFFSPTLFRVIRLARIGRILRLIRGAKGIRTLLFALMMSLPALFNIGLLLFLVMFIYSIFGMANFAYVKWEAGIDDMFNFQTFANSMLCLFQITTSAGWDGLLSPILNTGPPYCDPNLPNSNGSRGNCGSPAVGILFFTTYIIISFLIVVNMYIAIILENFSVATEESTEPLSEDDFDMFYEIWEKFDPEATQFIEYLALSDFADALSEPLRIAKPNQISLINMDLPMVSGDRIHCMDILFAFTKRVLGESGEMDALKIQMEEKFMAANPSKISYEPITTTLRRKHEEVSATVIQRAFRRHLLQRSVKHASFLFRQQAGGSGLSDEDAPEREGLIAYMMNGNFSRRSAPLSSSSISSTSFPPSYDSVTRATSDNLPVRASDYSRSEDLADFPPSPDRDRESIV
Description for phrenic nerve diaphragm: In order to establish the potency of the compounds to block nerve conduction, two in vitro assays were used. The first was the phrenic nerve diaphragm of the rat. […] Nerve blockade in these preparations is indicative of local anesthetic activity. Compounds were administered to the bath solution in increasing concentrations while the preparations were being stimulated with regular electrical impulses.
Excerpt for potassium channels: Two silver stimulating electrodes were inserted through the chest wall and implanted in the left ventricle. Square wave stimulation was used to determine threshold current for capture, ventricular fibrillation threshold current, and effective refractory period (Howard, P. G. and Walker, M. J. A., Proc. West. Pharmacol. Soc. 33:123-127 (1990)). […] The threshold current for capture is represented by "iT". The fibrillation threshold current is represented by "VFT". The effective refracting period is represented by "ERP".

`O=C(COc1ccc(Cl)c(Cl)c1)O[C@@H]1CCCC[C@H]1N1CCOCC1` (relative stereo) [Compound #4, (±)-trans-[2-(4-morpholinyl)cyclohexyl](3,4-dichlorophenoxy)acetate monohydrochloride]: the EC50 on cardiac sodium channel [1] (setting [7]) is greater than 500 µM. Moreover, at cardiac sodium channel [2], the “ED25 PR (dose required to produce a 25% increase)” value came to 44 µmol/kg and the “ED25 RSh (dose required to produce a 25% increase)” value came to 10 µmol/kg. Also, the “AS (arrhythmia score)” value in experiment [3] (dose 5 micromoles/kg/min infusion) came out at 3.6.

With `Cl.O=C(O[C@@H]1CCCC[C@H]1N1CCOCC1)c1cccc2ccccc12` (racemic) [Compound #15, (±)-trans-[2-(4-morpholinyl)cyclohexyl]-1-naphthoate monohydrochloride], at cardiac sodium channel [2], the “ED25 PR (dose required to produce a 25% increase)” value was found to be 340 µmol/kg, the “ED25 QRS (dose required to produce a 25% increase)” value came out at 90 µmol/kg and the “ED25 RSh (dose required to produce a 25% increase)” value is 80 µmol/kg. Also, on cardiac sodium channel [4], the “ED25 VFT (fibrillation threshold current)” value (“ED25 VFT” for short) amounted to 18 µmol/kg/min and the “ED25 iT (threshold current for capture)” value worked out at 33 µmol/kg/min. Moreover, in the experiment on potassium channels, the “ED25 ERP (effective refractory period)” value was 20 µmol/kg/min. The “AS (arrhythmia score)” value in experiment [3] (dose 12 micromoles/kg/min infusion) amounted to 2.

`O=C(COc1ccc(Cl)c(Cl)c1)O[C@@H]1CCCC[C@H]1N1CC2CCC(CC2)C1` (relative stereo) [Compound #3, (±)-trans-{2-[N-(3-azabicyclo[3.2.2]nonyl)]cyclohexyl}(3,4-dichlorophenoxy)acetate monohydrochloride]: at cardiac sodium channel [1], the EC50 was greater than 150 µM. Also, the “ED25 QT (dose required to produce a 25% increase)” value in experiment [5] came to 160 µmol/kg. Besides, at cardiac sodium channel [2], the “ED25 PR (dose required to produce a 25% increase)” value was 140 µmol/kg, the “ED25 QRS (dose required to produce a 25% increase)” value is 130 µmol/kg and the “ED25 RSh (dose required to produce a 25% increase)” value was 140 µmol/kg. In addition, in experiment [6], the IC50 turned out to be 300 µM. In addition, the IC50 in the experiment with phrenic nerve diaphragm worked out at 200 µM.

Consider `O=C(Cc1cccc2ccccc12)O[C@@H]1CCCC[C@H]1N1CCOCC1` (relative stereo) [Compound #8, (±)-trans-[2-(4-morpholinyl)cyclohexyl]naphthyl-1-acetate monohydrochloride], for which, on cardiac sodium channel [1] (setting [7]), the EC50 stood at 80 µM. Also, the “ED25 QT (dose required to produce a 25% increase)” value in experiment [5] amounted to 57 µmol/kg. Besides, at cardiac sodium channel [2], the “ED25 PR (dose required to produce a 25% increase)” value was determined as 20 µmol/kg, the “ED25 QRS (dose required to produce a 25% increase)” value is 42 µmol/kg and the “ED25 RSh (dose required to produce a 25% increase)” value is 11 µmol/kg. Further, on cardiac sodium channel [4], the “ED25 VFT” value was found to be 2 µmol/kg/min and the “ED25 iT (threshold current for capture)” value is 5 µmol/kg/min. In addition, the “ED25 ERP (effective refractory period)” value with potassium channels was 4 µmol/kg/min. Further, the “AS (arrhythmia score)” value in experiment [3] (dose 2 micromoles/kg/min infusion) stood at 3.

On cardiac sodium channel [1], `O=C(Cc1ccccc1)O[C@@H]1CCCC[C@H]1N1CCOCC1` (relative stereo) [Compound #10, (±)-trans-[2-(4-morpholinyl)cyclohexyl]phenylacetate monohydrochloride] had an EC50 greater than 300 µM. Also, the “ED25 QT (dose required to produce a 25% increase)” value in experiment [5] came to 25 µmol/kg. In addition, the “ED25 RSh (dose required to produce a 25% increase)” value on cardiac sodium channel [2] turned out to be 16 µmol/kg. Moreover, on cardiac sodium channel [4], the “ED25 VFT” value worked out at 1 µmol/kg/min and the “ED25 iT (threshold current for capture)” value stood at 15 µmol/kg/min. The “ED25 ERP (effective refractory period)” value in the experiment on potassium channels was 8 µmol/kg/min. Further, the “AS (arrhythmia score)” value in experiment [3] (dose 10 micromoles/kg/min infusion) came out at 2.2.

Turning to `O=C(Cc1ccc2ccccc2c1)O[C@@H]1CCCC[C@H]1N1CCOCC1` (relative stereo) [Compound #9, (±)-trans-[2-(4-morpholinyl)cyclohexyl]naphthyl-2-acetate monohydrochloride], the EC50 on cardiac sodium channel [1] (setting [7]) is greater than 100 µM. Moreover, in experiment [5], the “ED25 QT (dose required to produce a 25% increase)” value was 20 µmol/kg. Moreover, the “ED25 RSh (dose required to produce a 25% increase)” value on cardiac sodium channel [2] came out at 13 µmol/kg. Further, at cardiac sodium channel [4], the “ED25 VFT” value amounted to 7 µmol/kg/min and the “ED25 iT (threshold current for capture)” value stood at 34 µmol/kg/min. In the experiment with potassium channels, the “ED25 ERP (effective refractory period)” value turned out to be 8 µmol/kg/min. For the same compound, the “AS (arrhythmia score)” value in experiment [3] (setting [8]) is 1.3.

With `O=C(CC1CCCCC1)O[C@@H]1CCCC[C@H]1N1CCCC1` (relative stereo) [Compound #7, (±)-trans-[2-(1-pyrrolidinyl)cyclohexyl](cyclohexyl)acetate monohydrochloride], in experiment [5], the “ED25 QT (dose required to produce a 25% increase)” value came to 41 µmol/kg. In addition, on cardiac sodium channel [2], the “ED25 PR (dose required to produce a 25% increase)” value amounted to 84 µmol/kg and the “ED25 RSh (dose required to produce a 25% increase)” value turned out to be 6 µmol/kg.

Consider `O=C(COc1ccc(Cl)c(Cl)c1)O[C@@H]1CCCC[C@H]1N1CCCC1` (relative stereo) [Compound #1, (±)-trans-[2-(1-pyrrolidinyl)cyclohexyl](3,4-dichlorophenoxy)acetate monohydrochloride], for which the EC50 at cardiac sodium channel [1] was 200 µM. In addition, the “ED25 QT (dose required to produce a 25% increase)” value in experiment [5] worked out at 78 µmol/kg. In addition, on cardiac sodium channel [2], the “ED25 PR (dose required to produce a 25% increase)” value is 17 µmol/kg and the “ED25 RSh (dose required to produce a 25% increase)” value was 10 µmol/kg. Also, the IC50 in experiment [6] was found to be 40 µM. Also, on cardiac sodium channel [4], the “ED25 VFT” value came to 3 µmol/kg/min and the “ED25 iT (threshold current for capture)” value was found to be 6 µmol/kg/min. For the same compound, the IC50 with phrenic nerve diaphragm worked out at 90 µM. In addition, in the experiment on potassium channels, the “ED25 ERP (effective refractory period)” value came out at 4 µmol/kg/min.

Take `O=C(Cc1ccc([N+](=O)[O-])cc1)O[C@@H]1CCCC[C@H]1N1CCOCC1` (relative stereo) [Compound #12, (+5-trans-[2-(4-morpholinyl)cyclohexyl](4-nitrophenyl)acetatemonohydrochloride]: the EC50 at cardiac sodium channel [1] (setting [7]) is greater than 300 µM. In experiment [5], the “ED25 QT (dose required to produce a 25% increase)” value came out at 44 µmol/kg. On cardiac sodium channel [2], the “ED25 PR (dose required to produce a 25% increase)” value came out at 64 µmol/kg, the “ED25 QRS (dose required to produce a 25% increase)” value stood at 82 µmol/kg and the “ED25 RSh (dose required to produce a 25% increase)” value amounted to 17 µmol/kg. At cardiac sodium channel [4], the “ED25 VFT” value was found to be 5 µmol/kg/min and the “ED25 iT (threshold current for capture)” value came out at 4 µmol/kg/min. In the experiment with potassium channels, the “ED25 ERP (effective refractory period)” value was 6 µmol/kg/min. For the same compound, in experiment [3] (setting [9]), the “AS (arrhythmia score)” value was found to be 3.

Take `O=C(COc1ccc(Cl)c(Cl)c1)O[C@@H]1CCCC[C@H]1N1CCCCCC1` (relative stereo) [Compound #5, (±)-trans-[2-(1-hexahydroazepinyl)cyclohexyl](3,4-dichlorophenoxy)acetate monohydrochloride]: in experiment [5], the “ED25 QT (dose required to produce a 25% increase)” value was found to be 45 µmol/kg. In addition, at cardiac sodium channel [2], the “ED25 PR (dose required to produce a 25% increase)” value is 43 µmol/kg, the “ED25 QRS (dose required to produce a 25% increase)” value was 66 µmol/kg and the “ED25 RSh (dose required to produce a 25% increase)” value came to 36 µmol/kg. Also, the IC50 in experiment [6] worked out at 100 µM. For the same compound, at cardiac sodium channel [4], the “ED25 VFT” value stood at 4 µmol/kg/min and the “ED25 iT (threshold current for capture)” value stood at 5 µmol/kg/min. Further, the IC50 with phrenic nerve diaphragm came out at 180 µM. In addition, in the experiment on potassium channels, the “ED25 ERP (effective refractory period)” value was 4 µmol/kg/min. For the same compound, the “AS (arrhythmia score)” value in experiment [3] (setting [8]) was 3.

In the case of `Cl.O=C(Cc1cccc2sccc12)O[C@@H]1CCCC[C@H]1N1CCOCC1` (racemic) [Compound #16, (±)-trans-[2-(4-morpholinyl)cyclohexyl]benzo[b]thiophene-4-acetate monohydrochloride], on cardiac sodium channel [1] (setting [7]), the EC50 stood at 225 µM. In addition, the “ED25 QT (dose required to produce a 25% increase)” value in experiment [5] was 33 µmol/kg. Moreover, on cardiac sodium channel [2], the “ED25 PR (dose required to produce a 25% increase)” value was 230 µmol/kg, the “ED25 QRS (dose required to produce a 25% increase)” value came to 690 µmol/kg and the “ED25 RSh (dose required to produce a 25% increase)” value worked out at 23 µmol/kg. Besides, at cardiac sodium channel [4], the “ED25 VFT” value came out at 2 µmol/kg/min and the “ED25 iT (threshold current for capture)” value amounted to 15 µmol/kg/min. The “ED25 ERP (effective refractory period)” value in the experiment with potassium channels is 5 µmol/kg/min. In addition, the “AS (arrhythmia score)” value in experiment [3] (setting [9]) came out at 0.3.
